# Where “and” joins values, the source holds several entries; their conditions need not be identical. Equal values may be shown once. Entries after “also recorded” stand apart in the source; their conditions may differ. Read-outs that look alike come from different tables or passages of the source.
# Key:
# [1] = test system: rats; assay: Morris water maze probe trial with scopolamine; assay type: in vivo, rat; settings: for Morris water maze individual swimming trace, finding of target area: individual rat, FIGS. 1A-1C
# Description: The Morris water maze for rats (San Diego Instruments) uses a 70 inch diameter swimming tank, in which rats, one at a time, are placed to determine the swimming time taken to find a platform, which can be visible or submerged, and is placed randomly in the tank, with its position locatable by means of navigation in response to visible clues. A video camera is positioned to record the swimming path of the rat, and computer analysis of the path permits accurate assessment of elapsed time, distance traveled, and route taken to achieve particular objectives. This technique is used to study memory, learning and spatial working, in healthy, diseased, and drug-affected states. The test can be applied acutely (probe test) or can involve considerable training and repeat measure experimental designs. The term “latency” in the context of the Morris water maze is used to depict the relation of time taken to escape from the water (Morris R., “Development of a Water-Maze Procedure for Studying Spatial Learning in The Rat,” Journal of Neuroscience Methods 11:47-60 (1984) and Wongwitdecha et al., “Effects of Social Isolation Rearing on Learning in the Morris Water Maze,” Brain Research 715:119-124 (1996), both of which are hereby incorporated by reference in their entirety).
# This was a single dose probe trial in normal healthy rats with the objective of determining whether: (a) there is an effect in raising cognitive efficiency in unimpaired rats and (b) impairment caused by scopolamine can be reversed by EME.
# FIGS. 1A-1C show three individual swimming traces for rats treated with a control vehicle (FIG. 1A), a combined dose of ecgonine methyl ester (EME) (10 mg/kg) and scopolamine (1 mg/kg) (FIG. 1B), and a single dose of scopolamine (1 mg/kg) (FIG. 1C). The target area was in the “south west” or bottom left quadrant of the bath. […] This observation was significant (p<0.05).
# The group results in this probe trial with vehicle (VEH), EME alone, scopolamine alone, and EME plus scopolamine in the acute dose Morris water maze experiment are shown in FIG. 2. In particular, column 1 depicts the probe test results for the vehicle, column 2 depicts probe test results for EME alone, column 3 depicts probe test results for scopolamine alone, and column 4 depicts probe test results for EME in combination with scopolamine.
# [2] = biological target: nicotinic acetylcholine receptor (Mus musculus, UniProt P02716+P04756+P04760+P09690); settings: cited from earlier work
# Chain of nicotinic acetylcholine receptor (P04756 21-457): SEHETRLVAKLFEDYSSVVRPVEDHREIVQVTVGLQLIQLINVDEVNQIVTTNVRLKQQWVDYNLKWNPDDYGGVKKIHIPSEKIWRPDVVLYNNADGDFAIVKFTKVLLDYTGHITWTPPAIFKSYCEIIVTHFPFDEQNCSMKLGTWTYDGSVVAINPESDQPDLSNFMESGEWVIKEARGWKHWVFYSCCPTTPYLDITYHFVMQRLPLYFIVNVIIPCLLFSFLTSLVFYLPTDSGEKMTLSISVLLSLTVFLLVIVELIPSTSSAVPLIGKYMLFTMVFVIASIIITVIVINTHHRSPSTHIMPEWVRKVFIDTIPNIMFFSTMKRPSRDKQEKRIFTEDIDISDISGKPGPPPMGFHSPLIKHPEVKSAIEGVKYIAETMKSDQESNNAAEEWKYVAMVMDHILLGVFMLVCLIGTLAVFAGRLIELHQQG
# Chain of nicotinic acetylcholine receptor (P09690 24-501): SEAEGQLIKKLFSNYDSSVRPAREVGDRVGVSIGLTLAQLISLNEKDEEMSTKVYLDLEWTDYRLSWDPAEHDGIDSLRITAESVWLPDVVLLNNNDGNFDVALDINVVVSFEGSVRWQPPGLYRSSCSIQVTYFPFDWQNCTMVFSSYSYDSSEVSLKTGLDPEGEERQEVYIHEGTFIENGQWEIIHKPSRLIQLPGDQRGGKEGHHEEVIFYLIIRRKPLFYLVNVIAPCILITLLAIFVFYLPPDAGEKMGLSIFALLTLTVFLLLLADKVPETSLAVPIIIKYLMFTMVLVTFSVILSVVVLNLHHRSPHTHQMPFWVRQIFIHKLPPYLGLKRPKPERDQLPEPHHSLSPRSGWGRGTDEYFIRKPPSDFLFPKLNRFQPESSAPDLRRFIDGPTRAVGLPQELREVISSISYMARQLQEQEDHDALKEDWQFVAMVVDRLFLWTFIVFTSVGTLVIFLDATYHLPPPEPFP
# Chain of nicotinic acetylcholine receptor (P04760 23-519): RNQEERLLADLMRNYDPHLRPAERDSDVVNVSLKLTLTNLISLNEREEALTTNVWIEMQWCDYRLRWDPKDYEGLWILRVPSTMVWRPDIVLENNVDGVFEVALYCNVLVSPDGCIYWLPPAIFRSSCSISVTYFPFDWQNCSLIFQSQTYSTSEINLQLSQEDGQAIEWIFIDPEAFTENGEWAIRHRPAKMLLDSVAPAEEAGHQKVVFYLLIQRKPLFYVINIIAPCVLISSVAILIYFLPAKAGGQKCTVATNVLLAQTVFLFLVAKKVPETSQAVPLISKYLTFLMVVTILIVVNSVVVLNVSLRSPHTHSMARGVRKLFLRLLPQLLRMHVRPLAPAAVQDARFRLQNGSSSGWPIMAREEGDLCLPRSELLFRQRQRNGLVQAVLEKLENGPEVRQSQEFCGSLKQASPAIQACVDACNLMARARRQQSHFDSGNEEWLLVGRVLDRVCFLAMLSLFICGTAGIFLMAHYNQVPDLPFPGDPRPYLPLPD
# Chain of nicotinic acetylcholine receptor (P02716 25-520): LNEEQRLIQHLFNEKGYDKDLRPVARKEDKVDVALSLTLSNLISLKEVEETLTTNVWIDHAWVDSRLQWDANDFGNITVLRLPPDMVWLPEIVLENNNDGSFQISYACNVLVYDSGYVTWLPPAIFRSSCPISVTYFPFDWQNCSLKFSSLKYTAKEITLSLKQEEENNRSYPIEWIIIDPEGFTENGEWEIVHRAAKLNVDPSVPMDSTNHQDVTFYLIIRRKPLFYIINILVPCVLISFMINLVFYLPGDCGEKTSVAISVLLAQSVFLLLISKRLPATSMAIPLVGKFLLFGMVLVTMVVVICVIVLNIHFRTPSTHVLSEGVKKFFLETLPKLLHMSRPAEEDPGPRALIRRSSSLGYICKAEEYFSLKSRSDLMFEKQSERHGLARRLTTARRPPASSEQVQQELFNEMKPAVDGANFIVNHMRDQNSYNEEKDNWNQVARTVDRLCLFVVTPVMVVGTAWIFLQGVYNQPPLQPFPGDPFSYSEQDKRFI
# [3] = test system: mice; settings: mice pretreated with EME 50 mg/kg, 126 mg/kg cocaine five minutes later; survivors/animals; cited from earlier work
# [4] = biological target: T1, BC3H1 nicotinic acetylcholine receptor (Mus musculus, UniProt P02716+P04756+P04760+P09690); settings: 100 μM carbamoylcholine, cited from earlier work
# T1 construct: endogenous in cells; host or cells: BC3H1 cells
# T1 sequence (P04756 21-457): as the sequence (P04756 21-457) above
# T1 sequence (P09690 24-501): as the sequence (P09690 24-501) above
# T1 sequence (P04760 23-519): as the sequence (P04760 23-519) above
# T1 sequence (P02716 25-520): as the sequence (P02716 25-520) above
# [5] = in vivo; settings: rat, brain and plasma, ip, 10 mg/kg
# Description: (§1) Plasma and Brain Concentrations after Intraperitoneal Doses—Twenty young adult rats in groups of four were given intraperitoneal doses of 10 mg/kg, and killed and dissected at various times after dosing. Brain and plasma concentrations were assessed by GC-MS. Samples were pre-dose, and at 1, 2, 4 and 24 hours after the dose. Each point is the mean value from four rats.
# [6] = Brain and plasma concentrations after 10 mg/kg intraperitoneal doses (GC-MS)
# Description: as §1
# [7] = read-out: KD(Alv), range where effects of multiple Class 1 compounds were alleviated
# [8] = range where effects of multiple Class 1 compounds were alleviated, read-out: KD(Alv)
compound,measurement,setting,value
"COC(=O)C1C(O)CC2CCC1N2C (stereo not shown) [EME, ecgonine methyl ester]","Morris water maze probe test, group result, reversal of scopolamine impairment","[1]; EME (10 mg/kg) combined with scopolamine (1 mg/kg), single dose, group size 10",reversed the scopolamine effect; also recorded: restore function impaired by scopolamine
same,"Morris water maze probe test, group result versus controls","[1]; EME alone, single dose, normal healthy rats, group size 10",no effect on its own
same,"Morris water maze individual swimming trace, finding of target area",[1],found the target area
same,Kd,[2]; [7],0.8 to 12.7 µM
same,Survival,[3],increased survival and 9/40
same,Alleviation of cocaine inhibition of the nicotinic acetylcholine receptor,[4]; cocaine present (200 μM for EME),Alleviation of cocaine inhibition
same,Kp,[5],~10
same,Predicted half-life in humans,[6]; predicted from persistence in rats,6 to 8 h
same,Absorption after the IP dose,"[6]; rat, 10 mg/kg IP",rapid absorption
same,Decay of plasma concentrations,"[6]; rat, 10 mg/kg IP",biexponential decay
same,Time of maximal brain concentration,"[6]; rat, 10 mg/kg IP",2 h
same,Time of peak plasma concentration,"[6]; rat, 10 mg/kg IP",already peaked at one hour
same,Brain penetration,"[6]; rat, in vivo",readily penetrates the brain
CN1C2CC(S(=O)(=O)c3ccccc3)C1C(C(=O)O)=C(c1ccccc1)C2=O (stereo not shown) [RCS-111-218],Kd,[2]; [8],5 µM
"CN1[C@@H]2C[C@@H](OC(=O)[C@H](CO)c3ccccc3)C[C@H]1[C@@H]1O[C@@H]12 [scopolamine, reference compound]","Morris water maze individual swimming trace, finding of target area",[1],showed no preference
same,"Morris water maze probe test, group result","[1]; scopolamine alone (1 mg/kg), group size 10, p<0.05",showed the impairment
"CN1C2CCC1C(C(=O)O)C(O)C2 (stereo not shown) [Ecgonine, ecgonine]",Kd,[2]; [7],3.5 µM
"COC(=O)C1C(OC(C)=O)CC2CCC1N2C (stereo not shown) [3.Acetoxy EME, 3-Acetoxy EME]",Kd,[2]; [8],3.3 µM
CN1C2CCC1C(C(=O)O)C(c1ccc(Cl)cc1)C2 (stereo not shown) [RTI Compound],Kd,[2]; [7],0.7 to 14 µM
same,Kd,"[2]; read-out: KD(alv), unit inferred",0.7 µM
COC(=O)C1=C(c2ccccc2)C(=O)C2CC(S(=O)(=O)c3ccccc3)C1N2C (stereo not shown) [RCS-111-202A],Kd,[2]; [8],2.8 µM
"aptamer 3: Class 2 RNA aptamer, SEQ ID NO:56 (AGUAGGAAUACCCCCAUCCAAAGCUCGCUAGGCUGAACAC; RNA, backbone not given here)",Effect on whole-cell current generated by carbamoylcholine,"[4]; 5 μM aptamer, −60 mV, 22° C., pH 7.4, no inhibitor",no effect
COC(=O)C1=CC(=O)C2CC(S(=O)(=O)c3ccccc3)C1N2C (stereo not shown) [RCS-111-140A],Kd,[2]; [8],0.8 to 8.2 µM
same,Kd,"[2]; unit inferred, read-out: KD(alv)",0.8 µM
CN1C2CC(S(=O)(=O)c3ccccc3)C1C(C(=O)O)=CC2=O (stereo not shown) [RCS-111-143],Kd,[2]; [8],3.3 µM

# Reference: patent US20160193202A1, “THERAPEUTIC TREATMENT FOR DRUG POISONING AND ADDICTION” (ADISPELL, INC., priority 2013, published 2016)
